Data reported in patent US7759331B2, “Pyridine-containing macroheterococylic compounds as kinase inhibitors” (Janssen Pharmaceutica NV, priority 2006, dated 2010).

Experiments:
Assay in all cases: Protein kinase selectivity panel
Assay type in all cases: biochemical
Conditions in all cases: 1.0 μM compound, 10 μM ATP
PKBα(h) = PKBα(h) (Homo sapiens, UniProt P31749)
Protocol: (§1) Protein kinase selectivity assays were performed as described in the scientific literature (Davies, S. P., et al., Biochem. J. 2000, 351, 95-105). Briefly, protein kinases were assayed for their ability to phosphorylate the appropriate peptide/protein substrates in the presence of 1.0 μM compound. Assays were done using 10 μM ATP and were linear with respect to time. The protein kinase selectivity assays were performed by Upstate Cell Signaling Solutions using Upstate's KinaseProfiler™ Selectivity Screening Service.

CHK2(h) = CHK2(h) (Homo sapiens, UniProt O96017)
Protocol: as §1

PKCα(h) = PKCα(h) (Homo sapiens, UniProt P17252)
Protocol: as §1

PDK1(h) = biological target: T1, PDK1(h) (Homo sapiens, UniProt O15530)
T1 sequence (O15530 1-556): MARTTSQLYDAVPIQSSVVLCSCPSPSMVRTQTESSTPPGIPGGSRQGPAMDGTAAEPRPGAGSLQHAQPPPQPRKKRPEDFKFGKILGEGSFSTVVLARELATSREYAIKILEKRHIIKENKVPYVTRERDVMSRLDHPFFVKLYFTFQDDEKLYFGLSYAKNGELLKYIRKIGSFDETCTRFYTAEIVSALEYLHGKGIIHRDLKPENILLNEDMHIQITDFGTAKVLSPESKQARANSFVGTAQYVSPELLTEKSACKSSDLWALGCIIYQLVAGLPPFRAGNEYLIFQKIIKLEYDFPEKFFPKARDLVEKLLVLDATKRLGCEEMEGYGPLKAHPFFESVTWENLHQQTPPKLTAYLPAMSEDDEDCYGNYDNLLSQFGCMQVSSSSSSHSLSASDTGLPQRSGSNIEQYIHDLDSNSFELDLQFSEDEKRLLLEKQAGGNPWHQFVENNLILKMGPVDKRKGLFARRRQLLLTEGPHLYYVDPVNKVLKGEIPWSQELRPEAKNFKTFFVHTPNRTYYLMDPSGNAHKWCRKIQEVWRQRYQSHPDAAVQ
Protocol: as §1

EphB4(h) = biological target: T2, EphB4(h) (Homo sapiens, UniProt P54760)
T2 sequence (P54760 16-987): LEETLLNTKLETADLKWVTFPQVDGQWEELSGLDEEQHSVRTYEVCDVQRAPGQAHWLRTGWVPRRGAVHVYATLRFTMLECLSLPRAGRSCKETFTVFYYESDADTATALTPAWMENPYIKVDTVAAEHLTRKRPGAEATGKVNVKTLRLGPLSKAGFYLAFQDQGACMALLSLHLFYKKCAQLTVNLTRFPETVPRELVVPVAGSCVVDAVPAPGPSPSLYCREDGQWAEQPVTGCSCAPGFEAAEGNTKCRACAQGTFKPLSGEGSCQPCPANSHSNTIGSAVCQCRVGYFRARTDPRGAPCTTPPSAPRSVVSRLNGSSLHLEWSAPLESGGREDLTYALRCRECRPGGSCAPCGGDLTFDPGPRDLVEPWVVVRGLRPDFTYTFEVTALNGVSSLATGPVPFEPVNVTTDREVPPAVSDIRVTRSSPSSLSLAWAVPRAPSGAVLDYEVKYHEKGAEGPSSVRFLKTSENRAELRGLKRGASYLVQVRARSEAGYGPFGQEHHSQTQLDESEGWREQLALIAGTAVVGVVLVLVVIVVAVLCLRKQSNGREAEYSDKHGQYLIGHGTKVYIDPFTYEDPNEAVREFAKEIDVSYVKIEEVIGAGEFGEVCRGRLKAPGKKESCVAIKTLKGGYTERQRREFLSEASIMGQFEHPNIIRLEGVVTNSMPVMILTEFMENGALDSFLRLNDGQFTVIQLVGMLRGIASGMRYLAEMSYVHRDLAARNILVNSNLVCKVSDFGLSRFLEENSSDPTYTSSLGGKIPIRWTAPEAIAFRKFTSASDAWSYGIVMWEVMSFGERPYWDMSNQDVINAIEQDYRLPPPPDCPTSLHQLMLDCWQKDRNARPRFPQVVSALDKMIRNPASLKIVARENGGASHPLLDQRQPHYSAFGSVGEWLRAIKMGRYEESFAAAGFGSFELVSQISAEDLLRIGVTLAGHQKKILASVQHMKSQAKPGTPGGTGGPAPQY
Protocol: as §1

PKCι(h) = biological target: T3, PKCι(h) (Homo sapiens, UniProt P41743)
T3 sequence (P41743 1-596): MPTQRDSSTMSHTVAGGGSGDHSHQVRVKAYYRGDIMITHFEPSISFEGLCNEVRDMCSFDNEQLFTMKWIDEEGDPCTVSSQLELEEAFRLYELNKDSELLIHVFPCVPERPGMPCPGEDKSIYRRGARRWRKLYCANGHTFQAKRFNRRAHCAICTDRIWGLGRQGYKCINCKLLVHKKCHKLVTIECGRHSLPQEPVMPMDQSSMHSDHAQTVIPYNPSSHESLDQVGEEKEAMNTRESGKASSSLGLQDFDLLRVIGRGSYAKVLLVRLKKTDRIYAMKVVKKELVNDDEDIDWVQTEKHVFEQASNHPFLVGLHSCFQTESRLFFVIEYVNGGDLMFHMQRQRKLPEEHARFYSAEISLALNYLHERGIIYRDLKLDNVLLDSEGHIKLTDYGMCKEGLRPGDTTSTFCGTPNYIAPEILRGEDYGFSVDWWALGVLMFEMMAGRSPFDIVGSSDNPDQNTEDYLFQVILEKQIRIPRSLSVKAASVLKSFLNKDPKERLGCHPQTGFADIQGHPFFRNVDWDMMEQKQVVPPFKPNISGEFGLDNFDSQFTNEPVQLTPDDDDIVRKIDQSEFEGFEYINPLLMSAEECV
Protocol: as §1

CHK1(h) = biological target: T4, CHK1(h) (Homo sapiens, UniProt O14757)
T4 sequence (O14757 1-476): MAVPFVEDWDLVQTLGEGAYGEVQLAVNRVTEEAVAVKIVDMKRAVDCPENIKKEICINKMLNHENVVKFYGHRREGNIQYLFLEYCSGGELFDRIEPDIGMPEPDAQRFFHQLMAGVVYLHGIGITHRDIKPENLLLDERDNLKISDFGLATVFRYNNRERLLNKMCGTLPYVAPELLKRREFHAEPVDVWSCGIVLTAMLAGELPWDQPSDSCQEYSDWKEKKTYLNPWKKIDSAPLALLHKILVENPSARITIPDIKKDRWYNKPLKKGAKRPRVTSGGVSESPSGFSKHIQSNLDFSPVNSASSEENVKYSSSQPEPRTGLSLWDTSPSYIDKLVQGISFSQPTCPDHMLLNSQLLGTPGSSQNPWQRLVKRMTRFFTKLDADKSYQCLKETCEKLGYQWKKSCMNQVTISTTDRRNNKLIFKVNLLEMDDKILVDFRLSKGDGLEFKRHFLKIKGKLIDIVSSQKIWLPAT
Protocol: as §1

PKBα(h), sequence (P31749 whole entry): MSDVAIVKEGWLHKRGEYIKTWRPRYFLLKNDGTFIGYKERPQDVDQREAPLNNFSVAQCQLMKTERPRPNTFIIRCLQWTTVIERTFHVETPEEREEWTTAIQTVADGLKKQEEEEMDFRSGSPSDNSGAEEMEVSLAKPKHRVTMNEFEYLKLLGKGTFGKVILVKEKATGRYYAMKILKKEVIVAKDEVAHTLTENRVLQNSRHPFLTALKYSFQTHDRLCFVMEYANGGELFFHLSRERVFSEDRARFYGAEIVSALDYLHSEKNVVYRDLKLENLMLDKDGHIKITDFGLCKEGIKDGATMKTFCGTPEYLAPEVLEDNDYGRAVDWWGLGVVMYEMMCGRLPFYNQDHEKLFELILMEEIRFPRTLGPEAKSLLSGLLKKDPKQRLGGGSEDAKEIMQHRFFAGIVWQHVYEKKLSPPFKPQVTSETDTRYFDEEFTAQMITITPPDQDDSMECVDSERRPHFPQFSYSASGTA
CHK2(h), sequence (O96017 whole entry): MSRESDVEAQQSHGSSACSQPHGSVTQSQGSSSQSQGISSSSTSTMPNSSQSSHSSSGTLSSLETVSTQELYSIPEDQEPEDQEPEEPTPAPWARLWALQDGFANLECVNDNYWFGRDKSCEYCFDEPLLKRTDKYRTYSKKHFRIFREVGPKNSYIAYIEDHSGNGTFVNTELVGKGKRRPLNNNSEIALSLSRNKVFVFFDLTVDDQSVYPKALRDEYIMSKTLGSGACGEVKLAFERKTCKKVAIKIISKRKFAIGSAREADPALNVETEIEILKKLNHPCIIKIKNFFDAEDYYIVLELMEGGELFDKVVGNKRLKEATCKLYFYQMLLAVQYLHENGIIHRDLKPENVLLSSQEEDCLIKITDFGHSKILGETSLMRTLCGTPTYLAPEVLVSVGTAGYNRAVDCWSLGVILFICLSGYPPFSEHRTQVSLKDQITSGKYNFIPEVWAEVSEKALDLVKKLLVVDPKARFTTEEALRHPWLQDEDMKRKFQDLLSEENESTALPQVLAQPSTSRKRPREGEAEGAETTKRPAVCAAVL

Activity at Protein Kinase Assays (% of control), PKBα(h) (PKBα(h)) | Activity at Protein Kinase Assays (% of control), CHK2(h) (CHK2(h)) | Activity at Protein Kinase Assays (% of control), PKCα(h) (PKCα(h)) | Activity at Protein Kinase Assays (% of control), PDK1(h) (PDK1(h)) | Activity at Protein Kinase Assays (% of control), EphB4(h) (EphB4(h)) | Activity at Protein Kinase Assays (% of control), PKCι(h) (PKCι(h)) | Activity at Protein Kinase Assays (% of control), CHK1(h) (CHK1(h)) | SMILES
94 % of control | 91 % of control | 68 % of control | 115 % of control | 89 % of control | 104 % of control | 105 % of control | CN(C)c1nc2ccc1CCCCn1cc(c3ccccc31)C1=C(C(=O)NC1=O)c1cn(c3ccccc13)CCC2 [Cpd 1, 31-(dimethylamino)-5,15,25,32-tetraazaheptacyclo[28.2.2.1^5,12.1^18,25.0^6,11.0^13,17.0^19,24]hexatriaconta-1(32),6,8,10,12(36),13(17),18(35),19,21,23,30,33-dodecaene-14,16-dione]
114 % of control | 94 % of control | 74 % of control | 104 % of control | 103 % of control | 117 % of control | 101 % of control | CN(C)c1cc2cc(n1)CCCn1cc(c3ccccc31)C1=C(C(=O)NC1=O)c1cn(c3ccccc13)CCC2 [Cpd 2, 20-(dimethylamino)-4,14,19,26-tetraazaheptacyclo[24.6.1.1^7,14.1^18,22.0^2,6.0^8,13.0^27,32]pentatriaconta-1(33),2(6),7(35),8,10,12,18(34),19,21,27,29,31-dodecaene-3,5-dione]
112 % of control | 84 % of control | 82 % of control | 107 % of control | 109 % of control | 121 % of control | 110 % of control | O=C1NC(=O)C2=C1c1cn(c3ccccc13)CCCc1cc(nc(N3CCCC3)c1)CCCn1cc2c2ccccc21 [Cpd 6, 20-pyrrolidin-1-yl-4,14,19,26-tetraazaheptacyclo[24.6.1.1^7,14.1^18,22.0^2,6.0^8,13.0^27,32]pentatriaconta-1(33),2(6),7(35),8,10,12,18(34),19,21,27,29,31-dodecaene-3,5-dione]
106 % of control | 91 % of control | 83 % of control | 100 % of control | 100 % of control | 90 % of control | 106 % of control | O=C1NC(=O)C2=C1c1cn(c3ccccc13)CCCc1ccc(c(N3CCCC3)n1)CCCn1cc2c2ccccc21 [Cpd 7, 31-pyrrolidin-1-yl-5,15,25,30-tetraazaheptacyclo[27.2.2.1^5,12.1^18,25.0^6,11.0^13,17.0^19,24]pentatriaconta-1(31),6,8,10,12(35),13(17),18(34),19,21,23,29,32-dodecaene-14,16-dione]
